Where two headings read alike, the source gives them in different places.
Tests used:
E. coli [1] = conditions: urine isolate, human uroepithelial cells; concentration dependent; cited from earlier work
Candida albicans = conditions: oral isolate, human buccal epithelial cells; concentration dependent; cited from earlier work
S. epidermis = conditions: cited from earlier work
[2] = mice; cited from earlier work
[3] = clinical and bacteriologic outcomes, endotoxemia, organ failure, 28-day mortality; cited from earlier work
E. coli [4] = conditions: 0.2 mL of 20% solution in 5% polyvinyl pyrrolidone intravenous; E. coli intraperitoneal; cited from earlier work
[5] = mouse, in vivo; cited from earlier work
[6] = Long term stability of taurolidine in solution; type: physicochemical; conditions: citric acid and sodium citrate buffer, compared with PVP solutions
Source text: In addition, citric acid is a known antioxidant. The buffer system created by adjustment of pH using sodium hydroxide also resists changes in the pH due to the oxidation of formaldehyde to formic acid.

[7] = tested on: Staphylococcus Aureus (VISA, MRSA); conditions: pH 7.0 to pH 5.0; cited from earlier work
whole blood = experiment: Clotting of whole pig blood mixed with taurolidine solution with or without ACD-A; conditions: pig blood filled to 30 mL, inspected after 30 minutes
Method: A 0.5% solution of taurolidine in Ringer-lactate solution (Thomae, Biberach, Germany) was introduced into each of four polyethylene bottles having a 30 mL volume. Filling volumes were 5, 10, and 15 mL. One bottle was filled with 5 mL of the taurolidine solution and 2 mL ACD-A (Fresenius, Bad Homburg, Germany) solution. ACD-A solution is used for the conservation of whole blood and contains per liter: 22.0 grams of sodium citrate dihydrate, 7.3 grams of citric acid and 34.5 grams of glucose monohydrate.
Blood was collected at the slaughter house from a female pig directly from the slaughter wound into the containers that were then filled up to the 30 mL level. The containers were capped and gently moved to mix blood with the solution. The containers were inspected after 30 minutes. Blood in the containers containing only taurolidine was clotted, but the blood in the container containing the mixture of taurolidine and ACD-A was not clotted.

B. fragilis = conditions: 0.2 mL of 20% solution in 5% polyvinyl pyrrolidone intravenous; B. fragilis intraperitoneal; cited from earlier work

[H]/N=C(\N/C(=N/[H])NCCCCCCNC(=N)NC(=N)Nc1ccc(Cl)cc1)Nc1ccc(Cl)cc1 [chlorhexidine]
Anti-adherence activity (E. coli [1]): significant
Anti-adherence activity (Candida albicans): significant

O=C(O)CN(CCN(CC(=O)O)CC(=O)O)CC(=O)O [disodium EDTA, ethylenediaminetetraacetic acid]
Bactericidal concentration (S. epidermis; initial inoculum 10^3 CFU per mL, in 24 hours): 20 mg/mL

povidone-iodine
Anti-adherence activity (E. coli [1]): significant
Anti-adherence activity (Candida albicans): significant

O=S1(=O)CCN(CN2CCS(=O)(=O)NC2)CN1 [taurolidine, bis-(1,1-dioxo-perhydroxy-1,2,4-thiadiazin-4-yl)methane]
Intraperitoneal LD50 [2]: ~1500 mg/kg
Anti-adherence activity (E. coli [1]): significant
Anti-adherence activity (Candida albicans): significant
Therapeutic effect on outcome [3]: no beneficial therapeutic effect
Mortality rate (E. coli [4]): very significantly reduce the mortality rate
Teratogenicity [5]: non-teratogenic
Taurolidine solubility believed reachable (additional citric acid, without polyol or PVP): 5%
Taurolidine in solution achieved (approximately 2.6% by weight citric acid, no PVP or polyol, pH 5.2 to 5.3): 4.0 weight percent
Stability of taurolidine in solution [6]: increases the stability
Dependence of activity on pH [7]: increases with decreasing pH
Blood clotting on inspection (whole blood): clotted
Mortality rate (B. fragilis): very significantly reduce the mortality rate

CN[C@H](CC(C)C)C(=O)N[C@H]1C(=O)N[C@@H](CC(N)=O)C(=O)N[C@H]2C(=O)N[C@H]3C(=O)N[C@H](C(=O)N[C@H](C(=O)O)c4cc(O)cc(O)c4-c4cc3ccc4O)[C@H](O)c3ccc(c(Cl)c3)Oc3cc2cc(c3O[C@@H]2O[C@H](CO)[C@@H](O)[C@H](O)[C@H]2O[C@H]2C[C@](C)(N)[C@H](O)[C@H](C)O2)Oc2ccc(cc2Cl)[C@H]1O [Vancomycin]
Bactericidal concentration (S. epidermis; initial inocula 10^3 CFU/mL): 0.0067 mg/mL

heparin
Inhibition of growth (S. epidermis; isolate from catheter of infected patient): does not inhibit the growth

Reference: patent publication US6423706B1, “Antimicrobial locks comprising taurinamide derivatives and carboxylic acids and/or salts thereof” (Biolink Corporation, priority 1998, dated 2002)
